# Source: patent US20080227655A1, “Assessment of effect of an agent on a human biological condition using rodent gene expression panels” (priority 2006, published 2008)
# “And” between values parts separate entries of the source, which are not always exact repeats. Identical values can stand only once.
# Tested on: custom murine 40-gene Precision Profile for Rheumatoid Arthritis, whole blood
# Experiment: Collagen Induced Arthritis (CIA) model, whole blood gene expression by QPCR, vehicle or dexamethasone treatment
# Type: in vivo, male DBA/1 mice
# Details: for Normalized CT (Delta CT) IL1RAP_M / Normalized CT (Delta CT) IL1RN—M / Normalized CT (Delta CT) IL6_M / Normalized CT (Delta CT) JUN_M / Normalized CT (Delta CT) MEF2C—M / Normalized CT (Delta CT) NFKB1—M / Normalized CT (Delta CT) PADI4—M / Normalized CT (Delta CT) PLA2G7—M / Normalized CT (Delta CT) PTPRC_M / Normalized CT (Delta CT) PTX3_M / Normalized CT (Delta CT) SER-PINE1_M / Normalized CT (Delta CT) TGFB1_M / Normalized CT (Delta CT) TIMP1_M / Normalized CT (Delta CT) TLR2_M / Normalized CT (Delta CT) TLR4_M / Normalized CT (Delta CT) TNFSF5—M / Normalized CT (Delta CT) TNF_M / Normalized CT (Delta CT) VEGF_M: whole blood
# Procedure: Whole blood gene expression changes were evaluated in vehicle control and drug-treated murine subjects across two murine models of arthritis according to the following arthritis models:
# KRN Transgenic Mouse (K/B×N): K/B×N serum from transgenic mouse used to induce arthritis in female BALB/c mice (n=54). Collagen Induced Arthritis (CIA): Bovine type II collagen used to induce arthritis in male DBA/1 mice (n=54).
# In addition, naïve, untreated animal groups at baseline and terminal day were included to control for potential age-related changes in gene expression over the extended study periods. Animal groups, time-points, and treatment schedules are summarized in Tables 20A and 20B, respectively.
# Whole blood samples from animals were collected by retro-orbital bleed at selected time-points in accordance with the arthritis study schemas described in […], and transferred into sample collection tubes containing a 1.5× lysis solution and RPMI. Samples were processed into total RNA and cDNA. […] It was anticipated from these murine models would provide a better understanding of the relevant molecular response of arthritis induction and their potential correlation to the human disease condition.
# Normal murine subject reference values (represented as normalized Ct or ΔCt values) were established for male DBA/1 mice (n=6 for the CIA study arm) and female BALB/c mice (n=6 for the KRN study arm). In both arms of the study, gene expression response of normal (naïve, non-immunized and untreated) murine subjects were evaluated in groups of 6 each at day 0 and day 60 for the CIA study arm, and at day 0 and day 21 for the KRN study arm (see Tables 20A and 20B).
# Gene expression responses for this arthritis-induced murine model were evaluated for untreated mice at day 24 and vehicle-treated mice at days 33, 42, and 60 to characterize disease progression.
# [1] = CIA Day 33 Treated, group Average
# [2] = CIA Day 33 Treated, individual mice
# [3] = CIA Day 42 Treated, group Average
compound,measurement,setting,value
C[C@@H]1C[C@H]2[C@@H]3CCC4=CC(=O)C=C[C@]4(C)[C@@]3(F)[C@@H](O)C[C@]2(C)[C@@]1(O)C(=O)CO [Dexamethasone],"ABCA1_M Normalized CT Value (Delta CT), Average",[1],17.98
same,"APAF1_M Normalized CT Value (Delta CT), Average",[1],19.03
same,"ARG2_M Normalized CT Value (Delta CT), Average",[1],17.82
same,"CASP1_M Normalized CT Value (Delta CT), Average",[1],18.22
same,"CASP3_M Normalized CT Value (Delta CT), Average",[1],17.75
same,"CCR3_M Normalized CT Value (Delta CT), Average",[1],19.87
same,"CD8A_M Normalized CT Value (Delta CT), Average",[1],18.74
same,"CD14_M Normalized CT Value (Delta CT), Average",[1],17.29
same,"CD32_M Normalized CT Value (Delta CT), Average",[1],18.45
same,"CD86_M Normalized CT Value (Delta CT), Average",[1],22.19
same,"CSPG2_M Normalized CT Value (Delta CT), Average",[1],18.04
same,"F3_M Normalized CT Value (Delta CT), Average",[1],25.08
same,"HMOX1—M Normalized CT Value (Delta CT), Average",[1],17.47
same,"HSPA1A—M Normalized CT Value (Delta CT), Average",[1],19.62
same,"ICAM1—M Normalized CT Value (Delta CT), Average",[1],18.84
same,"IFI16_M Normalized CT Value (Delta CT), Average",[1],18.42
same,"IL1A_M Normalized CT Value (Delta CT), Average",[1],24.44
same,"IL1B_M Normalized CT Value (Delta CT), Average",[1],14.09
same,"IL10_M Normalized CT Value (Delta CT), Average",[1],25.81
same,Normalized CT (Delta CT) IL1RAP_M,[1],17.96
same,Normalized CT (Delta CT) IL1RN—M,[1],17.38
same,Normalized CT (Delta CT) IL6_M,[1],23.95
same,Normalized CT (Delta CT) JUN_M,[1],19.37
same,Normalized CT (Delta CT) MEF2C—M,[1],18.84
same,Normalized CT (Delta CT) NFKB1—M,[1],16.55
same,Normalized CT (Delta CT) PADI4—M,[1],17.87
same,Normalized CT (Delta CT) PLA2G7—M,[1],14.85
same,Normalized CT (Delta CT) PTPRC_M,[1],13.58
same,Normalized CT (Delta CT) PTX3_M,[1],25.65
same,Normalized CT (Delta CT) SER-PINE1_M,[1],20.38
same,Normalized CT (Delta CT) TGFB1_M,[1],14.82
same,Normalized CT (Delta CT) TIMP1_M,[1],25.24
same,Normalized CT (Delta CT) TLR2_M,[1],17.70
same,Normalized CT (Delta CT) TLR4_M,[1],18.20
same,Normalized CT (Delta CT) TNFSF5—M,[1],21.06
same,Normalized CT (Delta CT) TNF_M,[1],19.71
same,Normalized CT (Delta CT) VEGF_M,[1],20.19
same,ABCA1_M Normalized CT Value (Delta CT),[2],17.26 and 18.20 and 17.50 and 17.61 and 19.02 and 18.30
same,APAF1_M Normalized CT Value (Delta CT),[2],18.67 and 19.22 and 18.56 and 19.02 and 19.62 and 19.07
same,ARG2_M Normalized CT Value (Delta CT),[2],17.14 and 18.42 and 17.47 and 17.92 and 17.83 and 18.15
same,CASP1_M Normalized CT Value (Delta CT),[2],17.29 and 18.41 and 17.98 and 18.58 and 18.74 and 18.31
same,CASP3_M Normalized CT Value (Delta CT),[2],16.82 and 17.64 and 17.74 and 18.06 and 18.00 and 18.21
same,CCR3_M Normalized CT Value (Delta CT),[2],18.36 and 19.59 and 19.88 and 20.33 and 20.88 and 20.15
same,CD8A_M Normalized CT Value (Delta CT),[2],17.83 and 18.69 and 18.52 and 18.83 and 19.44 and 19.14
same,CD14_M Normalized CT Value (Delta CT),[2],17.10 and 17.77 and 16.89 and 17.05 and 17.36 and 17.54
same,CD32_M Normalized CT Value (Delta CT),[2],17.52 and 18.69 and 18.07 and 18.17 and 19.57 and 18.71
same,CD86_M Normalized CT Value (Delta CT),[2],21.71 and 22.43 and 21.83 and 21.99 and 22.92 and 22.26
same,CSPG2_M Normalized CT Value (Delta CT),[2],17.33 and 18.26 and 17.36 and 18.91 and 17.94 and 18.42
same,F3_M Normalized CT Value (Delta CT),[2],23.01 and 25.60 and 26.10 and 25.22 and 24.87 and 25.67
same,HMOX1—M Normalized CT Value (Delta CT),[2],16.95 and 17.50 and 17.08 and 17.53 and 17.80 and 17.98
same,HSPA1A—M Normalized CT Value (Delta CT),[2],18.80 and 20.04 and 19.25 and 20.03 and 19.32 and 20.30
same,ICAM1—M Normalized CT Value (Delta CT),[2],18.16 and 19.11 (2×) and 18.33 and 19.33 and 19.01
same,IFI16_M Normalized CT Value (Delta CT),[2],17.31 and 18.37 and 18.29 and 18.56 and 18.70 and 19.31
same,IL1A_M Normalized CT Value (Delta CT),[2],24.58 and 24.31
same,IL1B_M Normalized CT Value (Delta CT),[2],13.46 and 14.53 and 13.95 and 14.00 and 14.32 and 14.27
same,IL10_M Normalized CT Value (Delta CT),[2],25.17 and 25.58 and 26.12 and 26.14 and 25.77 and 26.06
same,Normalized CT (Delta CT) IL1RAP_M,[2],17.64 (2×) and 18.18 and 17.83 and 18.26 and 18.20
same,Normalized CT (Delta CT) IL1RN—M,[2],16.72 and 17.84 and 17.10 and 17.67 and 17.23 and 17.73
same,Normalized CT (Delta CT) IL6_M,[2],23.19 and 24.14 and 23.12 and 24.21 and 24.22 and 24.83
same,Normalized CT (Delta CT) JUN_M,[2],18.61 and 19.69 and 19.28 and 19.18 and 19.87 and 19.60
same,Normalized CT (Delta CT) MEF2C—M,[2],18.46 and 19.03 and 18.51 and 18.82 and 19.65 and 18.56
same,Normalized CT (Delta CT) NFKB1—M,[2],15.81 and 16.66 and 16.35 and 16.51 and 17.38 and 16.63
same,Normalized CT (Delta CT) PADI4—M,[2],17.79 and 18.22 and 17.82 and 17.94 and 17.90 and 17.58
same,Normalized CT (Delta CT) PLA2G7—M,[2],14.49 and 15.12 and 14.67 and 15.01 and 15.09 and 14.74
same,Normalized CT (Delta CT) PTPRC_M,[2],13.01 and 13.82 and 13.27 and 13.81 and 14.11 and 13.46
same,Normalized CT (Delta CT) PTX3_M,[2],25.66 and 25.46 and 25.62 and 25.86 and 26.01 and 25.32
same,Normalized CT (Delta CT) SER-PINE1_M,[2],20.09 and 20.42 and 20.70 and 20.01 and 20.26 and 20.78
same,Normalized CT (Delta CT) TGFB1_M,[2],14.47 and 14.92 and 14.68 and 14.99 and 14.96 and 14.87
same,Normalized CT (Delta CT) TIMP1_M,[2],25.48 and 25.27 and 25.34 and 25.05 and 25.73 and 24.56
same,Normalized CT (Delta CT) TLR2_M,[2],17.23 and 17.92 and 17.46 and 17.97 and 17.84 and 17.81
same,Normalized CT (Delta CT) TLR4_M,[2],17.72 and 18.52 and 18.24 and 18.23 and 18.30 and 18.16
same,Normalized CT (Delta CT) TNFSF5—M,[2],20.24 and 21.35 and 20.73 and 21.36 and 21.76 and 20.95
same,Normalized CT (Delta CT) TNF_M,[2],18.97 and 20.16 and 19.24 and 19.56 and 20.34 and 20.01
same,Normalized CT (Delta CT) VEGF_M,[2],19.55 and 20.59 and 19.74 and 20.04 and 21.29 and 19.96
same,"ABCA1_M Normalized CT Value (Delta CT), Average",[3],19.35
same,"APAF1_M Normalized CT Value (Delta CT), Average",[3],19.60
same,"ARG2_M Normalized CT Value (Delta CT), Average",[3],17.90
same,"CASP1_M Normalized CT Value (Delta CT), Average",[3],18.55
same,"CASP3_M Normalized CT Value (Delta CT), Average",[3],18.07
same,"CCR3_M Normalized CT Value (Delta CT), Average",[3],19.53
same,"CD8A_M Normalized CT Value (Delta CT), Average",[3],19.66
same,"CD14_M Normalized CT Value (Delta CT), Average",[3],17.57
